According to patent US8906349B2, “Oral care composition” (priority 2009, dated 2014):
Converted amounts (≈) assume the structure as drawn. Where two headings read alike, the source gives them in different places.

Tests used:
Format in all cases: cell-based
A. viscosus biofilm [1] = test: Inhibition of single-species biofilm formation by serial dilutions of bisabolol (Example 2); conditions: bisabolol alone, 24 hours, FIG. 1
Method: The effect of different concentrations of bisabolol on the inhibition of A. viscosus biofilm formation was tested. A. viscosus bacteria were grown for 24 hours in the presence of serial dilutions of bisabolol or an equivalent concentration of EtOH. Wells were stained to visualize biofilm formation. The results are shown in FIG. 1 where the x-axis represents the concentration of bisabolol (or an equivalent solution of EtOH in media) and the y-axis represents the percent reduction in biofilm relative to control wells grown in media alone.

A. viscosus biofilm [2] = test: Biofilm Eradication Concentration (BEC50), crystal violet biomass, compositions serially diluted (Example 3); conditions: FIG. 2; for BEC(50) alone: active tested alone, lowest concentration with >50% reduction in biomass vs media control; for BEC50 in combination: bisabolol (0.7%) and Triclosan (0.05%) composition serially diluted, concentration of the named active in the combination
Method: A composition comprising bisabolol, a composition comprising the antibacterial agent Triclosan and a composition comprising both bisabolol and Triclosan were tested for antibiofilm activity.
A composition comprising bisabolol (0.7%), a composition comprising Triclosan (0.05%) and a composition comprising bisabolol (0.7%) and Triclosan (0.05%) were each serially diluted in a 96-well plate. A. viscosus cultures were added to each well and plates were incubated at 37° C. to allow biofilm formation to occur. Following biofilm formation, supernatants were removed and wells were stained with 0.6% crystal violet for 15 min. Biofilm biomass was quantified by reading the absorbance of each well at 590 nm and the percentage reduction in biomass relative to a control of media alone was calculated.
BEC50 is defined as the minimum concentration at which a greater than 50% reduction of biofilm formation is observed.

A. viscosus = test: Minimum inhibitory concentration, serial dilution in 96-well plate, 24 h; conditions: Actinomyces viscosus, read-out: MIC (A. viscosus)
Method: The minimum inhibitory concentration for actives was determined by incubating Actinomyces viscosus bacteria with serial dilutions of the active for 24 hours and determining the lowest concentration at which growth of this species was inhibited. Briefly, 100 μl final volume actives were serially diluted in 0.5× tryptic soy broth (TSB) across duplicate wells of a 96-well flat bottom microtiter plate. An overnight culture of bacteria was diluted to an OD610 ˜0.2 and 100 μl of this was added to each well. Plates were incubated overnight at 37° C. OD610 was read for each well and the MIC was determined as the concentration of active in the last well where bacterial growth was inhibited.

A. viscosus biofilm [3] = test: Bioenhancement assay: BEC50 of antimicrobial agents with or without bisabolol, crystal violet, 24 h (Examples 4 and 5)
[4] = test system: five-species biofilm: A. viscosus, Lactobacillus casei, Streptococcus oralis, Fusobacterium nucleatum and Veillonella parvula; test: Multispecies biofilm formation on saliva coated hydroxyapatite disks, 48 h, OD610 (Example 6); conditions: 20 ppm of Triclosan alone, FIG. 5
Method: The ability of compositions comprising Triclosan and bisabolol either alone or in combination to inhibit biofilm formation were tested in a multispecies model where the biofilms comprised five representative oral bacterial species: A. viscosus, Lactobacillus casei, Streptococcus oralis, Fusobacterium nucleatum and Veillonella parvula. Saliva coated hydroxyapatite (HAP) disks were inoculated with this five-species mix of bacteria in the presence Triclosan alone, bisabolol alone or with a 2:1 concentration of bisabolol:Triclosan. Disks were incubated for 48 h to allow biofilm formation to occur. Biofilm containing disks are were incubated in 1 ml of 0.25% trypsin solution for 45 min at 37° C. to release the biofilm and biomass was read as the OD610 of the trypsin solution.
In order to determine any antibiofilm effect beyond that of Triclosan, it was necessary to reduce the concentration of Triclosan below the inhibitory concentration. […]

[5] = Table 2, absence of bisabolol, FIG. 4a
[6] = Table 2, presence of 50 ppm bisabolol, FIG. 4a
[7] = first Table 3, said to be raw data of FIG. 4b, absence of bisabolol
[8] = first Table 3, said to be raw data of FIG. 4b, presence of 50 ppm bisabolol

| Compound | lowest concentration inhibiting formation of single-species biofilms (A. viscosus biofilm [1]) | BEC(50) alone (A. viscosus biofilm [2]) | BEC50 in combination (A. viscosus biofilm [2]) | MIC (A. viscosus; lowest concentration inhibiting growth, overnight at 37° C., 0.5× TSB) | BEC(50) alone (A. viscosus biofilm [3]; [5]) | BEC(50) w/bisabolol (A. viscosus biofilm [3]; [6]) | BEC(50) alone (A. viscosus biofilm [3]; [7]) | BEC(50) w/bisabolol (A. viscosus biofilm [3]; [8]) | BEC50 of Triclosan alone (A. viscosus biofilm [3]; Example 4, no bisabolol, FIG. 3) | BEC50 of Triclosan in the composition comprising bisabolol (A. viscosus biofilm [3]; Example 4, with 5 ppm bisabolol, FIG. 3) | reduction in biofilm formation [4] | MIC (A. viscosus) |
| --- | --- | --- | --- | --- | --- | --- | --- | --- | --- | --- | --- | --- |
| CC(C)=CCC[C@](C)(O)C1CC=C(C)CC1 (some centres unmarked) [Bisabolol] | 110 ppm | 110 ppm | 27.3 ppm | 125 µg/mL (≈ 562 µM) | – | – | – | – | – | – | – | – |
| CCCCCCCCCCCCCCCC[n+]1ccccc1 [CPC, cetyl pyridinium chloride] | – | – | – | – | 0.6836 | 0.4883 | 0.1196 | 1.7999E−07 | – | – | – | – |
| Oc1cc(Cl)ccc1Oc1ccc(Cl)cc1Cl [Triclosan] | – | approximately 3.9 ppm | 1.95 ppm | – | 1.465 | 0.4883 | 0.2819 | 0 | 4.13 ppm | 1.78 ppm | > 60% | 3.5 µg/mL (≈ 12.1 µM) |
| CCCCc1ccc(O)c(-c2cc(CCCC)ccc2O)c1 [butyl magnolol] | – | – | – | – | 0.5859 | 0.5859 | 0.09766 | 0.09766 | – | – | – | – |
| C=CCc1ccc(O)c(-c2ccc(O)c(CC=C)c2)c1 [honokiol] | – | – | – | – | 13.38 | 5.176 | 5.41 | 2.69 | – | – | – | – |
| C=CCc1ccc(O)c(-c2cc(CC=C)ccc2O)c1 [magnolol] | – | – | – | – | 3.906 | 0.8789 | 1.07 | 0.2847 | – | – | – | – |
| CCCc1ccc(O)c(-c2ccc(O)c(CCC)c2)c1 [propyl honokiol] | – | – | – | – | 2.344 | 1.367 | 0.3906 | 0.2392 | – | – | – | – |
| [Cl][Sn][Cl] [stannous chloride] | – | – | – | – | 234.375 | 161.1 | 45.11 | 59.87 | – | – | – | – |
| [F][Sn][F] [stannous flouride, stannous fluoride] | – | – | – | – | 312.5 | 86.06 | 0 | 75.56 | – | – | – | – |
| O=C([O-])CC(O)(CC(=O)[O-])C(=O)[O-].O=C([O-])CC(O)(CC(=O)[O-])C(=O)[O-].[Zn+2].[Zn+2].[Zn+2] [zinc citrate] | – | – | – | – | 208.3 | 19.53 | 52.08 | 9.766 | – | – | – | – |
| catechin | – | – | – | – | 812.5 | 618.75 | 187.5 | 233.5 | – | – | – | – |
